Test results as given in patent publication US4892883A, “Pharmaceutical compositions containing bilobalide for the treatment of neuropathies Ai” (Willman - Schwabe GmbH & Co., priority 1973, dated 1990).

What was measured:
[1] = system: male Sprague-Dawley rats given triethyltin chloride (brain water and electrolyte contents); experiment: Protective effect against triethyltin chloride (TET) intoxication (Experiment 1, Table I); assay type: in vivo, rat (Sprague-Dawley); settings: for Brain % water / Brain K^+ / Brain Na^+ / Brain Na^+ /K^+ / Mean body weight, 14 days / Mean body weight, initial: TET 0.002%
Method: Male Sprague-Dawley rats (200-300 g body weight) are offered an aqueous solution containing 0.002 per cent triethyltin chloride (abbreviated to TET) as drinking liquid for 14 days. Control animals received water. The Gingko biloba monoextract (EGB) with or without bilobalide and the various test substances are administered orally 1×daily throughout these 14 days. On day 15, the animals are sacrificed, the brain is removed and its water and electrolyte contents are determined. The body weight of the animals during the experiment is checked daily.

[2] = system: male Sprague-Dawley rats given hexachlorophene (brain water and electrolyte contents); experiment: Protective effect against hexachlorophene intoxication (Experiment 2, Table II); assay type: in vivo, rat (Sprague-Dawley); settings: hexachlorophene i.p.
Method: In another experiment, male Sprague-Dawley rats (200-250 g body weight) receive intraperitoneal injections of 20 mg/kg hexachlorophene (suspended in 0.2% agar) for 2 days and only 10 mg/kg on the 3rd day. The test substances are administered orally after administration of hexachlorophene.
The control animals receive only 0.2% agar i.p. or tap water orally. On the 4th day, the animals are sacrificed and the water and electrolyte contents in the brain are determined. The body weight of the animals is measured daily throughout the 4 days.

[3] = system: neuropathy on the triethyltin chloride model; experiment: Protective action against TET-induced neuropathy, hotplate test (Experiment 4, Table III); assay type: in vivo, rat (Sprague-Dawley); settings: TET 0.002%
Method: The investigations of the protective action against damage to myelin and its expression as neuropathy is likewise carried out on the triethyltin chloride model. When the animals are treated not for 14 days but for only 6 days with a 0.002 per cent TET solution administered in place of the drinking water, they show various signs of neuropathy although no cerebral oedema is detectable in this period. The neuropathy is quantified by measuring the consumption of food and water and by the changes in body weight. In addition, as a specific parameter, the pain reaction time in a hotplate test (at 50° C.) is measured (J. Pharm. Pharmacol., 9 (1957), 381).

[4] = system: neuropathy on the triethyltin chloride model; experiment: Curative action on TET-induced neuropathy, hotplate test (Experiment 5, Table IV); assay type: in vivo, rat (Sprague-Dawley); settings: for Body weight after intoxication / Food consumption after intoxication / Hotplate reaction time after intoxication / Water consumption after intoxication: after 6 days TET, before treatment
Method: In a similar manner, the curative action of bilobalid or extract containing bilobalide is investigated. The animals are offered a 0.002 per cent TET solution in place of drinking water for 6 days. Subsequently (from the 7th day), the TET solution is replaced by tap water and, simultaneously, the daily oral treatment is started. Treatment is continued for 6 days. The measured parameters (body weight, consumption of food and water, hotplate reaction time) are determined on the 6th day before the treatment and on the 14th day after the treatment.

[5] = system: cholinergic mechanisms of the central nervous system; experiment: Stimulating effect on cholinergic mechanisms of the central nervous system; settings: in vivo
Method: The stimulating effects of the extract on the cholinergic system of the central nervous system were determined in various experiments. In one of these experiments the influence of the extract on the spontaneous climbing behaviour (SCB) was examined according to the method described by Marcais et al. (Psychopharmacology; 56, 233-234, 1978).

[6] = system: existent neuropathies, neurological and mental functions; experiment: Clinical investigations; assay type: in vivo
[7] = system: neuropathy on the triethyltin chloride model; experiment: Protective action against TET-induced neuropathy, hotplate test (Experiment 4, Table III); assay type: in vivo, rat (Sprague-Dawley); settings: overall conclusion of Experiments 1 to 5
[8] = system: Monilia fructicola; settings: cited from earlier work
[9] = system: Penicillium glaucum; settings: cited from earlier work
[10] = system: Escherichia coli; settings: cited from earlier work
[11] = system: mouse ear; settings: cited from earlier work
[12] = 5 mg/kg p.o. daily 6 days after TET
[13] = 10 mg/kg p.o. daily 6 days after TET

Question: What does the source list for `CC(C)(C)C1(O)CC2OC(=O)CC23C(=O)OC2OC(=O)C(O)C231` (centres unmarked) [Bilobalide, bilobalide]?
Answer: Brain % water ([1]; 5 mg/kg p.o. 1×daily 14 days): 78.57 ± 0.19%; Brain K^+ ([1]; 5 mg/kg p.o. 1×daily 14 days): 418.9 ± 14.4 mmol/kg dry weight; Brain Na^+ ([1]; 5 mg/kg p.o. 1×daily 14 days): 162.6 ± 5.4 mmol/kg dry weight; Brain Na^+ /K^+ ([1]; 5 mg/kg p.o. 1×daily 14 days): 0.39 ± 0.020; Mean body weight, 14 days ([1]; 5 mg/kg p.o. 1×daily 14 days): 323 g; Mean body weight, initial ([1]; 5 mg/kg p.o. 1×daily): 288 g; Brain % water ([1]; 10 mg/kg p.o. 1×daily 14 days): 78.16 ± 0.09%; Brain K^+ ([1]; 10 mg/kg p.o. 1×daily 14 days): 452.7 ± 12.9 mmol/kg dry weight; Brain Na^+ ([1]; 10 mg/kg p.o. 1×daily 14 days): 198.3 ± 2.74 mmol/kg dry weight; Brain Na^+ /K^+ ([1]; 10 mg/kg p.o. 1×daily 14 days): 0.44 ± 0.04; Mean body weight, 14 days ([1]; 10 mg/kg p.o. 1×daily 14 days): 318 g; Mean body weight, initial ([1]; 10 mg/kg p.o. 1×daily): 272 g; Brain % water ([1]; 20 mg/kg p.o. 1×daily 14 days): 77.75 ± 0.11%; Brain K^+ ([1]; 20 mg/kg p.o. 1×daily 14 days): 400.6 mmol/kg dry weight; Brain Na^+ ([1]; 20 mg/kg p.o. 1×daily 14 days): 187.9 ± 10.4 mmol/kg dry weight; Brain Na^+ /K^+ ([1]; 20 mg/kg p.o. 1×daily 14 days): 0.45 ± 0.05; Mean body weight, 14 days ([1]; 20 mg/kg p.o. 1×daily 14 days): 325 g; Mean body weight, initial ([1]; 20 mg/kg p.o. 1×daily): 288 g; protective effect against decrease in body weight and increase in brain water and Na^+ ([1]; oral, TET 14 days): good protective effect; Mean body weight, 4th day ([2]; 5 mg/kg p.o.): 270 g; Brain % water ([2]; 5 mg/kg p.o., 4th day): 77.93 ± 0.17%; Brain K^+ ([2]; 5 mg/kg p.o., 4th day): 414.5 ± 4.4 mmol/kg dry weight; Brain Na^+ ([2]; 5 mg/kg p.o., 4th day): 187.9 ± 4.0 mmol/kg dry weight; Brain Na^+ /K^+ ([2]; 5 mg/kg p.o., 4th day): 0.45 ± 0.01; Mean body weight, initial ([2]; 5 mg/kg p.o., initial): 264 g; protection from cerebral oedema and reduction in body weight ([2]; oral): protects the animals from the development of cerebral oedema and prevents the reduction in body weight; Food consumption, final ([3]; 10 mg/kg/day p.o. 6 days): 22.1 g/animal/day; Mean body weight, final ([3]; 10 mg/kg/day p.o. 6 days): 261 g; Water consumption, final ([3]; 10 mg/kg/day p.o. 6 days): 21.9 ml/animal/day; Hotplate reaction time, final ([3]; 10 mg/kg/day p.o. 6 days, 50° C.): 17.9 s; Hotplate reaction time, initial ([3]; 10 mg/kg/day p.o., 50° C., initial): 28.9 s; Food consumption, initial ([3]; 10 mg/kg/day p.o., initial): 24.3 g/animal/day; Mean body weight, initial ([3]; 10 mg/kg/day p.o., initial): 241 g; Water consumption, initial ([3]; 10 mg/kg/day p.o., initial): 35.1 ml/animal/day; protective action against neuropathic signs ([3]; oral, 6 days): good protective action against the neuropathic signs; Body weight after treatment [4, 12]: 242 g; Food consumption after treatment [4, 12]: 17.4 g/animal/day; Hotplate reaction time after treatment [4, 12]: 61.58 s; Water consumption after treatment [4, 12]: 31.4 ml/animal/day; Body weight after intoxication ([4]; 5 mg/kg p.o. group): 236 g; Food consumption after intoxication ([4]; 5 mg/kg p.o. group): 10.4 g/animal/day; Hotplate reaction time after intoxication ([4]; 5 mg/kg p.o. group): 88.1 ± 5.67 s; Water consumption after intoxication ([4]; 5 mg/kg p.o. group): 11.4 ml/animal/day; Body weight after treatment [4, 13]: 232 g; Food consumption after treatment [4, 13]: 18.6 g/animal/day; Hotplate reaction time after treatment [4, 13]: 48.58 ± 18.44 s; Water consumption after treatment [4, 13]: 23.1 ml/animal/day; Body weight after intoxication ([4]; 10 mg/kg p.o. group): 227 g; Food consumption after intoxication ([4]; 10 mg/kg p.o. group): 8.9 g/animal/day; Hotplate reaction time after intoxication ([4]; 10 mg/kg p.o. group): 87.36 ± 7.46 s; Water consumption after intoxication ([4]; 10 mg/kg p.o. group): 12.7 ml/animal/day; regression of pre-existent damage ([4]; overall conclusion): pre-existent damage can be made to regress more quickly; stimulating effect on cholinergic mechanisms of the central nervous system [5]: stimulating effect on the cholinergic mechanisms of the central nervous system; effects on existent neuropathies, neurological and mental functions [6]: favourable effects on existent neuropathies, neurological and mental functions; prevention of neurotoxic signs and of cerebral oedema [7]: prevents the occurrence of neurotoxic signs and of cerebral oedema; fungicidal action [8]: no fungicidal action; fungicidal action [9]: no fungicidal action; bactericidal action [10]: nor any bactericidal action; inflammatory action [11]: no inflammatory action
